Read-outs that look alike come from different tables or passages of the source.

The subject of this test is Exophiala dermatitidis CA01. The test is described as follows: Broth microdilution chequerboard analysis of Lynovex (NM001) in combination with clinical antifungals. It is filed as cell-based. As to conditions: for MIC: Exophiala dermatitidis, CA01, 72 h, antifungal in isolation, read-out: Antifungal MIC100; for MIC / Antifungal MIC100 in Combination: 72 h; for MIC / Antifungal MIC100 in Combination / Antifungal MIC50 in Combination: 35° C.; for FICI: antifungal with Lynovex (NM001), <0.5 Synergy, 0.5-1 Additive, >1 Indifference; for Antifungal MIC100 in Combination / Antifungal MIC50 in Combination: in combination with Lynovex (NM001). The method, then:
The aim of the experiment was to determine the effect of Lynovex (NM001) on the antifungal drug susceptibility of Exophiala dermatitidis CA01. Microtitre plates were prepared following CLSI recommendations for broth microdilution chequerboard method. These plates contained a serial doubling dilution of Lynovex (NM001) combined with serial doubling dilutions of antifungals drugs; Fluconazole, Itraconazole, Caspofungin and Amphotericin B. […] These were incubated at 35° C. and read at 72 h, 96 h, 120 h and 144 h on the BioTek plate reader. […] Three independent E. dermatitidis CA01 cultures were grown on PDA slope for 6 days at 35° C. • 7. Cultures were removed from incubator. 2 ml sterile 0.15M NaCl added to the overnight culture and cells harvested from the surface of the agar. Cells placed in fresh bijou tube. • 8. The cultures were allowed to rest for up to 10 minutes, allowing any hyphae to settle to the bottom. The top layer of conidia was removed into fresh bijou. Hyphae were discarded. • 9. […] This is continued to F12 where 100 μl is removed and discarded. • f. This dilution series was repeated in rows G-H for the remaining 2 cultures • g. Plate read at OD530 on BioTek • h. […] This preparation step occurs in two parts. First, Lynovex (NM001) and antifungals are serially diluted, down and across microtitre plates, respectively. Equal volumes of Lynovex and antifungal are then combined in a fresh microtitre plate, prior to inoculation. […] Stock solutions of Lynovex and antifungals were prepared at 4× desired concentrations. The plate layout at the end of this protocol is the final concentration in the plate following the combination of Lynovex and antifungals and the addition of the inocula. […] All other wells contain 150 μl sterile dH2O. • 9. Serial doubling dilutions are carried out from A to B whereby 150 μl is removed from A and placed into B and mixed well. Then take 150 μl B and place in C and mix well. This is repeated down to row G where the final 150 μl is discarded. […] The same procedure is repeated for the other 4 antifungals, carrying the dilutions across the plate i.e. […] At the final dilution in column 10, the final 150 μl is discarded. […] Inoculating Plates with E. dermatitidis CA01 • 6. Add 100 μl (total volume 200 μl) of the prepared E. dermatitidis CA01 culture to the all wells on the plate except wells H12. […] H12 will contain 100 μl water and 100 μl 2×RPMI-1640 alone, constituting an uninoculated control. • 8. The plate is read in the BioTek at OD530. • 9. Plates are then placed in a plastic box containing a Petri dish of water, sealed and incubated at 35° C. The presence of the water in the dish or on the tissue provides and environment of relatively high humidity. • 10. OD530 is then read at 72 h, 96 h, 120 h and 144 h and raw data processed using Microsoft Excel. • 11. Fractional Inhibitory Concentration (FIC) Index values are generated using MIC100 for 72 h data and MIC50 for later time points using the following formula: […]

For the compound `CC[C@H](C)C[C@H](C)CCCCCCCCC(=O)N[C@H]1C[C@@H](O)[C@@H](NCCN)NC(=O)[C@@H]2[C@@H](O)CCN2C(=O)[C@H]([C@H](O)CCN)NC(=O)[C@H]([C@H](O)[C@@H](O)c2ccc(O)cc2)NC(=O)[C@@H]2C[C@@H](O)CN2C(=O)[C@H]([C@@H](C)O)NC1=O` [Caspofungin], the MIC is, setting by setting: (GEOMEAN) 25 µg/mL; (MEAN) 26 µg/mL; (Range) 15.6 to 31.2 µg/mL. Moreover, the FICI is 0.48 (4) (GEOMEAN, MIC50, 96 h); 0.24 (4) (GEOMEAN, MIC50, 120 h); 0.41 (3) (GEOMEAN, MIC50, 144 h); 0.25 (1) (GEOMEAN, MIC100, 72 h); 0.58 (4) (MEAN, MIC50, 96 h); 0.27 (4) (MEAN, MIC50, 120 h). Moreover, the FICI by setting is: (MEAN, MIC50, 144 h) 0.52 (3); (MEAN, MIC100, 72 h) 0.25 (1). In addition, the “Antifungal MIC100 in Combination” value by setting is: (GEOMEAN) 2.0 µg/mL; (MEAN) 2.0 µg/mL; (Range) 2.0 µg/mL. In addition, the “Antifungal MIC50 in Combination” value (GEOMEAN, 96 h) worked out at 11.84 µg/mL; the “Antifungal MIC50 in Combination” value (GEOMEAN, 120 h) was determined as 1.95 µg/mL; the “Antifungal MIC50 in Combination” value (GEOMEAN, 144 h) came out at 3.91 µg/mL; the “Antifungal MIC50 in Combination” value (MEAN, 96 h) is 14.84 µg/mL; the “Antifungal MIC50 in Combination” value (MEAN, 120 h) was 4.20 µg/mL; the “Antifungal MIC50 in Combination” value (MEAN, 144 h) turned out to be 6.51 µg/mL. Moreover, the “Antifungal MIC50 in Combination” value by setting is: (Range, 96 h) 3.91 to 31.25 µg/mL; (Range, 120 h) 0.49 to 15.625 µg/mL; (Range, 144 h) 0.23 µg/mL.
Take `OC(Cn1cncn1)(Cn1cncn1)c1ccc(F)cc1F` [Fluconazole]: the MIC (GEOMEAN) stood at 250 µg/mL, the MIC (MEAN) was found to be 250 µg/mL and the MIC (Range) turned out to be 250 µg/mL. Also, the FICI (GEOMEAN, MIC50, 96 h) is reported as 0.44 (6); the FICI (GEOMEAN, MIC50, 120 h) was 0.41 (4); the FICI (GEOMEAN, MIC50, 144 h) is reported as 0.53 (4); the FICI (GEOMEAN, MIC100, 72 h) is 0.42 (3); the FICI (MEAN, MIC50, 96 h) was 0.45 (6); the FICI (MEAN, MIC50, 120 h) was 0.42 (4). For the same compound, the FICI (MEAN, MIC50, 144 h) is listed as 0.55 (4) and the FICI (MEAN, MIC100, 72 h) is 0.43 (3). Besides, the “Antifungal MIC100 in Combination” value reads like this: (GEOMEAN) 25 µg/mL; (MEAN) 34 µg/mL; (Range) 7.81 to 62.5 µg/mL. For the same compound, the “Antifungal MIC50 in Combination” value runs as follows: (GEOMEAN, 96 h) 35 µg/mL; (GEOMEAN, 120 h) 44 µg/mL; (GEOMEAN, 144 h) 63 µg/mL; (MEAN, 96 h) 51 µg/mL; (MEAN, 120 h) 59 µg/mL; (MEAN, 144 h) 98 µg/mL. Further, the “Antifungal MIC50 in Combination” value was in the range of 7.81 to 125 µg/mL (Range, 96 h); 15.63 to 125 µg/mL (Range, 120 h); 15.63 to 250 µg/mL (Range, 144 h).
As to `CCC(C)n1ncn(-c2ccc(N3CCN(c4ccc(OCC5COC(Cn6cncn6)(c6ccc(Cl)cc6Cl)O5)cc4)CC3)cc2)c1=O` (stereo not drawn) [Itraconazole], the MIC is 4.5 µg/mL (GEOMEAN), 4.7 µg/mL (MEAN) and 4 to 8 µg/mL (Range). For the same compound, the FICI (GEOMEAN, MIC50, 96 h) is reported as 0.27 (7); the FICI (GEOMEAN, MIC50, 120 h) is listed as 0.18 (5); the FICI (GEOMEAN, MIC50, 144 h) is recorded as 0.18 (3); the FICI (GEOMEAN, MIC100, 72 h) is 0.18 (5); the FICI (MEAN, MIC50, 96 h) is 0.32 (7); the FICI (MEAN, MIC50, 120 h) is reported as 0.20 (5). In addition, the FICI runs as follows: (MEAN, MIC50, 144 h) 0.19 (3); (MEAN, MIC100, 72 h) 0.19 (5). In addition, the “Antifungal MIC100 in Combination” value was 0.14 µg/mL (GEOMEAN), 0.24 µg/mL (MEAN) and 0.03 to 0.5 µg/mL (Range). Further, the “Antifungal MIC50 in Combination” value (GEOMEAN, 96 h) is 0.37 µg/mL; the “Antifungal MIC50 in Combination” value (GEOMEAN, 120 h) is 0.19 µg/mL; the “Antifungal MIC50 in Combination” value (GEOMEAN, 144 h) was determined as 0.20 µg/mL; the “Antifungal MIC50 in Combination” value (MEAN, 96 h) amounted to 0.74 µg/mL; the “Antifungal MIC50 in Combination” value (MEAN, 120 h) amounted to 0.33 µg/mL; the “Antifungal MIC50 in Combination” value (MEAN, 144 h) turned out to be 0.27 µg/mL. For the same compound, the “Antifungal MIC50 in Combination” value runs as follows: (Range, 96 h) 0.06 to 2 µg/mL; (Range, 120 h) 0.06 to 1 µg/mL; (Range, 144 h) 0.06 to 0.5 µg/mL.

The values above are taken from patent US20160102052A1, “Use of Cysteamine in Treating Infections caused by Yeasts/Moulds” (priority 2014, published 2016).
